Reference: patent US9591852B2, “Biofilm disruptive compositions” (McNeil-PPC, Inc., priority 2009, dated 2017)
Where two headings read alike, the source gives them in different places.

System: 48-hour salivary biofilm
Test: Biofilm disruption screening assay: 48-hour salivary biofilm on polystyrene peg plate, ATP bioluminescence of bacteria remaining
Type: cell-based
Conditions: for log RLU compound: treated twenty minutes, N=8
Method: (§1) A 48-hour salivary biofilm was grown on a polystyrene peg plate substrate (96 pegs, N=8 per test group). The pegs were subsequently treated for twenty minutes with each of the long chain alcohols formulations described above, as well as the negative control. After treatment, viable bacteria remaining on the substrate were removed by sonication using a Ultrasonic processor XL by Misonix (Farmingdale, N.Y.), lysed with Celsis Luminex (Celsis Rapid Detection Rapiscreen (Celsis International PLC, Chicago)) and ATP from the bacteria were measured using a bioluminescence marker Celsis LuminATE (Celsis Rapid Detection Rapiscreen (Celsis International PLC, Chicago)). Data was reported in log RLU (relative light units), where decreasing log RLUs indicates fewer bacteria remaining on the substrate and in M-factor units where M-factor is the difference between the log RLU values of the compound tested and the negative control.
as §1, with “marker.” for “marker”
To determine the concentration dependence of biofilm disruptor activity, a series of formulations was prepared with cis-2-nonen-1-ol concentration ranging from 0.0005% to 0.1%. These formulations were tested against the negative control in the biofilm disruption screening assay described in Examples 1 and 2. Data was reported in log RLU (relative light units) where decreasing log RLUs indicates fewer bacteria remaining on the substrate and in M-factor units where M-factor is the difference between the log RLU values of the compound tested and the negative control. […]

[1] = 20 min, alcohol 0.05% (w/v), twenty minutes, difference between log RLU of compound and negative control, read-out: M-factor
[2] = unsaturated long chain alcohol 0.05% (w/v) in water/ethanol/Pluronic F-127, decreasing log RLU = fewer bacteria remaining
[3] = 20 min, aldehyde 0.05% (w/v), twenty minutes, difference between log RLU of compound and negative control, read-out: M-factor
[4] = unsaturated long chain aldehyde 0.05% (w/v) in water/ethanol/Pluronic F-127

SMILES: CC/C=C\CCCCO [cis-5-octen-1-ol]
- log reduction at 0.05 % [1]: 0.31
- log RLU compound [2]: 5.01 log RLU

SMILES: C=CCCCCCCCCO [9-decen-1-ol]
- log reduction at 0.05 % [1]: 0.97
- log RLU compound [2]: 4.35 log RLU

SMILES: C=CC(O)CCCCC (stereo not drawn) [1-octen-3-ol]
- log reduction at 0.05 % [1]: 0.33
- log RLU compound [2]: 4.99 log RLU

SMILES: CCC/C=C/C=O [trans-2-hexenal]
- log reduction at 0.05 % [3]: 0.19
- log RLU compound [4]: 5.39 log RLU

SMILES: CCC/C=C\CO [cis-2-hexen-1-ol]
- log reduction at 0.05 % [1]: 0.11
- log RLU compound [2]: 5.21 log RLU

SMILES: CCCCCCCC/C=C/C=O [trans-2-undecenal]
- log reduction at 0.05 % [3]: 0.83
- log RLU compound [4]: 4.49 log RLU

SMILES: CC/C=C\CCCCCC=O [cis-7-decenal]
- log reduction at 0.05 % [3]: 0.33
- log RLU compound [4]: 5.25 log RLU

SMILES: CCCCCCC/C=C/CO [trans-2-decen-1-ol]
- log reduction at 0.05 % [1]: 1.45
- log RLU compound [2]: 4.13 log RLU

SMILES: CCCCCCCCC/C=C/CO [trans-2-dodecen-1-ol]
- log reduction at 0.05 % [1]: 0.88
- log RLU compound [2]: 4.44 log RLU

SMILES: CCC/C=C\CCO [cis-3-hepten-1-ol]
- log reduction at 0.05 % [1]: 0.25
- log RLU compound [2]: 5.07 log RLU

SMILES: CC/C=C\CCC=O [cis-4-hepten-1-al]
- log reduction at 0.05 % [3]: -0.04
- log RLU compound [4]: 5.14 log RLU

SMILES: CCCCC/C=C/CO [trans-2-octen-1-ol]
- log reduction at 0.05 % [1]: 0.69
- log RLU compound [2]: 4.89 log RLU

SMILES: CCC/C=C/CO [trans-2-hexen-1-ol]
- log reduction at 0.05 % [1]: 0.12
- log RLU compound [2]: 5.20 log RLU

SMILES: CCCCCC/C=C/CO [trans-2-nonen-1-ol]
- log reduction at 0.05 % [1]: 0.45
- log RLU compound [2]: 4.83 log RLU

SMILES: CCCCCCC/C=C/C=O [trans-2-decenal]
- log reduction at 0.05 % [3]: 0.95
- log RLU compound [4]: 4.63 log RLU

SMILES: CCCCC/C=C\CCCO [cis-4-decen-1-ol]
- log reduction at 0.05 % [1]: 0.62
- log RLU compound [2]: 4.71 log RLU

SMILES: CCCCCC/C=C\CO [cis-2-nonen-1-ol]
- log reduction at 0.05 % [1]: 0.76
- log reduction at 0.1 % (20 min, formulation A, cis-2-nonen-1-ol 0.1% (w/v), vs negative control log RLU 5.63, read-out: M-factor): 0.82
- log reduction at 0.05 % (20 min, formulation B, cis-2-nonen-1-ol 0.05% (w/v), vs negative control log RLU 5.63, read-out: M-factor): 0.82
- log reduction at 0.025 % (20 min, formulation C, cis-2-nonen-1-ol 0.025% (w/v), vs negative control log RLU 5.63, read-out: M-factor): 0.35
- log reduction at 0.01 % (20 min, formulation D, cis-2-nonen-1-ol 0.01% (w/v), vs negative control log RLU 5.63, read-out: M-factor): 0.04
- log reduction at 0.005 % (20 min, formulation E, cis-2-nonen-1-ol 0.005% (w/v), vs negative control log RLU 5.63, read-out: M-factor): -0.06
- log reduction at 0.001 % (20 min, formulation F, cis-2-nonen-1-ol 0.001% (w/v), vs negative control log RLU 5.63, read-out: M-factor): -0.07
- log reduction at 0.0005 % (20 min, formulation G, cis-2-nonen-1-ol 0.0005% (w/v), vs negative control log RLU 5.63, read-out: M-factor): -0.09
- log RLU (formulation A, cis-2-nonen-1-ol 0.1% (w/v)): 4.81 log RLU
- log RLU (formulation B, cis-2-nonen-1-ol 0.05% (w/v)): 4.82 log RLU
- log RLU (formulation C, cis-2-nonen-1-ol 0.025% (w/v)): 5.28 log RLU
- log RLU (formulation D, cis-2-nonen-1-ol 0.01% (w/v)): 5.59 log RLU
- log RLU (formulation E, cis-2-nonen-1-ol 0.005% (w/v)): 5.69 log RLU
- log RLU (formulation F, cis-2-nonen-1-ol 0.001% (w/v)): 5.70 log RLU
- log RLU (formulation G, cis-2-nonen-1-ol 0.0005% (w/v)): 5.72 log RLU
- log RLU compound [2]: 4.57 log RLU

SMILES: CCCCCCCCC/C=C/C=O [trans-2-dodecenal]
- log reduction at 0.05 % [3]: 1
- log RLU compound [4]: 4.58 log RLU

SMILES: CC/C=C\CCO [cis-3-hexen-1-ol]
- log reduction at 0.05 % [1]: 0.06
- log RLU compound [2]: 5.22 log RLU

SMILES: C=CC(O)CCCCCCC (stereo not drawn) [1-decen-3-ol]
- log reduction at 0.05 % [1]: 0.86
- log RLU compound [2]: 4.46 log RLU

SMILES: CC/C=C\CCCCCO [cis-6-nonen-1-ol]
- log reduction at 0.05 % [1]: 0.72
- log RLU compound [2]: 4.60 log RLU

SMILES: CCCCCC/C=C/C=O [trans-2-nonenal]
- log reduction at 0.05 % [3]: 0.92
- log RLU compound [4]: 4.66 log RLU

SMILES: CCCCC/C=C\CCO [cis-3-nonen-1-ol]
- log reduction at 0.05 % [1]: 0.76
- log RLU compound [2]: 4.56 log RLU

SMILES: CCCC/C=C/C=O [trans-2-heptenal]
- log reduction at 0.05 % [3]: 0.06
- log RLU compound [4]: 5.52 log RLU

SMILES: CC/C=C\CCCCC=O [cis-6-nonenal]
- log reduction at 0.05 % [3]: 0.44
- log RLU compound [4]: 4.84 log RLU

SMILES: CCCCCCCC/C=C/CO [trans-2-undecen-1-ol]
- log reduction at 0.05 % [1]: 0.56
- log RLU compound [2]: 4.72 log RLU

SMILES: CCCCC/C=C\CCC=O [cis-4-decenal]
- log reduction at 0.05 % [3]: 0.99
- log RLU compound [4]: 4.59 log RLU

SMILES: CC(C)=CCCC(C)C=O (stereo not drawn) [2,6-dimethyl-5-hepten-1-al]
- log reduction at 0.05 % [3]: 0.21
- log RLU compound [4]: 5.07 log RLU

SMILES: CCCCC/C=C/C=O [trans-2-octenal]
- log reduction at 0.05 % [3]: 0.32
- log RLU compound [4]: 5.26 log RLU
